Read-outs that look alike come from different tables or passages of the source.
Tests used:
[1] = system: NcCDHIIA; test: Amplex Red–horseradish peroxidase assay, background H2O2 production by CDH; format: biochemical, Neurospora crassa; conditions: for Specific activity, Background: without LPMO, 1 µM NcCDHIIA, 10 mM lactose, 50 µM AmplexRed, 7 U mL-1 horseradish peroxidase
Procedure: (§1) The Amplex Red–horseradish peroxidase assay was used to measure the uncoupling reaction of NcLPMO9C that produces superoxide or H2O2. The activity of LPMO was measured in the presence of oxalic acid as an inhibitory compound.

[2] = target: T1, NcLPMO9C (Neurospora crassa, UniProt Q7SHI8); conditions: for Rate (Light Intensity at 620 nm min^−1): 0.5 µM NcLPMO9C, 1 mM ascorbic acid, 100 µM H2O2, pH 6.0, acetic acid 200 mM, mean ± SD; for activity: pH 6
T1 sequence (Q7SHI8 17-359): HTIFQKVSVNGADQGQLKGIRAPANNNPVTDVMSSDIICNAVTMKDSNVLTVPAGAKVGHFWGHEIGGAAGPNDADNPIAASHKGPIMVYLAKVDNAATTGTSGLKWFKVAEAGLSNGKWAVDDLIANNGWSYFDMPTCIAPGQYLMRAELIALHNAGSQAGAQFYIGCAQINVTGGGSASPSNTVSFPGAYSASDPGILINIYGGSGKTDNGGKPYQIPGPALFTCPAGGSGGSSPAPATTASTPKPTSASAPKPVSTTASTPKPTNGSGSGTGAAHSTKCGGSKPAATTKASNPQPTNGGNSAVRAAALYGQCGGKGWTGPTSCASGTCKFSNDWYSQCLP
Procedure: LPMO activity was measured by the attenuation of optical density at 620 nm at 30 °C in 100 mM sodium acetate, 100 mM sodium citrate, or 100 mM sodium phosphate buffer, pH 6.0. […] The pH was checked before and after the measurements. A total volume of 2.5 mL contained 100 mM of buffer, pH 6.0, 0.8 mg/mL PASC, 0.5 or 1.0 µM of NcLPMO9C, 1 mM ascorbic acid or 1 µM NcCDHIIA with 10 mM lactose. A 10 mm quartz cuvette with a magnetic stirrer was used to maintain a homogeneously mixed PASC suspension.
To measure the inhibition by oxalic acid, the change in light intensity per minute was calculated at different inhibitor concentrations. […] LPMO was reduced with ascorbic acid and mixed with H2O2 to measure the activity.
LPMO peroxygenase activity was tested on PASC using a turbidity assay. Reaction was started with H2O2 and rates were obtained from light-intensity decrease at 620 nm. Assay contained 0.5 µM (A) or 1.0 µM (B) NcLPMO9C, 0.8 mg mL^−1 PASC, 1 mM ascorbic acid and 100 µM H2O2, respectively. H2O2 was added after 30 s to the stirred cuvette and the rate calculated from 40 s up to 200 s, having a data interval for each point of 0.1 s. pH was checked after all measurements and data are expressed as mean values (±SE), from three independent repeats. IC50 values were obtained by a nonlinear curve fit and calculating the oxalic acid concentration of oxalic acid at 50% of the rate.

[3] = target: T1, NcLPMO9C; conditions: - Ascorbic acid (blank); 4 h, 4 × 100 µM H2O2, 100 mM compound
Procedure: NcLPMO9C (1 µM) was incubated with 2 mg mL^−1 PASC, either 1 mM ascorbic acid or 1 µM NcCDHIIA together with 10 mM lactose as reductant and 400 µM H2O2 (4 × 100 µM) as cosubstrate at a total volume of 1 mL. At the beginning and after every hour, 100 µM H2O2 was added to the reaction. The reaction tubes were closed and continuously mixed in the dark for a total reaction time of 4 h. Reactions were stopped by heating to 95 °C for 10 min. The remaining PASC was removed by centrifugation, and the supernatant was analyzed by HPLC. Soluble cello-oligomers (DP 1–6) were used as standards to quantify LPMO-released products. To test the effect of different buffers or inhibitors, 100 mM sodium acetate buffer, pH 6.0, was supplemented with 100 mM of the different compounds.
We analyzed cello-oligomeric product formation after PASC treatment with NcLPMO9C, which is released as a byproduct of cellulose oxidation. […] Conditions with different buffers and reducing agents were tested. In all experiments, LPMO, PASC and H2O2 were present. As a reducing agent, ascorbic acid was chosen, whereas blank reactions were carried out in the absence of ascorbic acid.
H2O2 was added four times every hour.

[4] = target: T1, NcLPMO9C; test: Amplex Red–horseradish peroxidase assay of the uncoupling reaction (H2O2 production) of LPMO; format: biochemical; set-up: made in house; host or cells: Pichia pastoris X-33; conditions: 1 µM NcLPMO9C, 1 µM NcCDHIIA, 10 mM lactose, 50 µM AmplexRed, 7 U mL-1 horseradish peroxidase; for Specific activity, NcLPMO9C - background: 100 mM sodium acetate buffer pH 6.0, without or with 100 mM oxalic acid; for Specific activity, NcLPMO9C: not background-corrected
Procedure: as §1

[5] = target: T1, NcLPMO9C; conditions: for Residual activity to 100 mM acetate buffer, Hydro-Coerulignone: pH 6; for peroxidase activity of LPMO at higher concentrations: >100 mM of the substance, 2,6-DMP and hydrocoerulignone assays
Procedure: (§2) LPMO-activity assay using 2000 µM 2,6-DMP or 500 µM hydrocoerulignone were carried out in 100 mM sodium acetate buffer at pH 6.0, at 30 °C using 100 µM H2O2, at 469 nm and a reaction time of 300 s. For blank reactions, the same experiments were performed without adding LPMO. The resulting rate was subtracted from the rate with the addition of LPMO. One unit of LPMO activity is defined as the conversion of either 2 µmol 2,6-DMP or 1 µmol hydrocoerulignone or the formation of 1 µmol coerulignone (ε469 = 53,200 M^−1 cm^−1) per min under reaction conditions. For the inhibition tests, the 100 mM sodium acetate buffer at pH 6.0 was supplemented with 100 mM of the different compounds and the pH was checked before and after the measurements.
(§3) By measuring the LPMO activity in 100 mM sodium acetate buffer, we determined the maximum activity achievable for the applied conditions.

[6] = target: T1, NcLPMO9C; test: biochemical; conditions: for remaining activity at 100000 µM: pH 6, read-out: Residual activity to 100 mM acetate buffer, Hydro-Coerulignone; for IC50: IC50 values as summarised in the text, for both assays (2,6-DMP and hydrocoerulignone), peroxidase reaction
Procedure: as §2, §3

Row | Compound | Rate (Light Intensity at 620 nm min^−1) [2] | Total cello-oligomers produced [3] [µM] | cellobiose produced [3] [µM] | cellotetraose produced [3] [µM] | cellotriose produced [3] [µM] | further results
1 | CC(=O)O [Acetic acid] | 0.14 ± 0.01 Light Intensity at 620 nm min^−1 | 14.6 | 4.2 | 6.2 | 4.3 | Specific activity, Background [1]: 2.6 ± 0.1 U g-1; Specific activity, NcLPMO9C - background [4]: 4.9 ± 0.1 U g-1; Specific activity, NcLPMO9C [4]: 7.5 ± 0.1 U g-1
2 | c1c[nH]cn1 [Imidazole] |  |  |  |  |  | Residual activity to 100 mM acetate buffer, Hydro-Coerulignone [5]: 72.2 ± 3.9%
3 | CC(=O)C(=O)O [Pyruvic acid] |  | 9.0 | 5.6 |  | 3.3 | remaining activity at 100000 µM [6]: 4.1 ± 0.4%
4 | [F-].[Na+] [NaF] |  |  |  |  |  | effect on the activity of the LPMO ([5]; peroxidase assays): did not show any effect on the activity of the LPMO until very high concentrations were used
5 | O=C(O)CC(O)(CC(=O)O)C(=O)O [Citric acid] | 0.014 ± 0.001 Light Intensity at 620 nm min^−1 | 17.3 | 7.2 | 5.9 | 4.2 | peroxidase activity of LPMO at higher concentrations [5]: nondetectable level; activity [2]: 8 ± 1%
6 | O=S(=O)([O-])[O-].[Na+].[Na+] [Na2SO4] |  |  |  |  |  | IC50 ([5]; read-out: IC50 values as summarised in the text, for both assays (2,6-DMP and hydrocoerulignone), peroxidase reaction): ~30000 µM
7 | CC(O)C(=O)O (centres unmarked) [Lactic acid] | 0.08 ± 0.02 Light Intensity at 620 nm min^−1 | 12.4 | 3.5 | 5.4 | 3.6 | activity [2]: 47 ± 13%
8 | O=CC=O [Glyoxal] |  |  |  |  |  | Residual activity to 100 mM acetate buffer, Hydro-Coerulignone [5]: 43.9 ± 3.6%
9 | O=C(O)C(=O)O [Oxalic acid] | 0.002 ± 0.001 Light Intensity at 620 nm min^−1 | 15.8 | 6.8 | 5.3 | 3.7 | H2O2 production by NcCDHIIA ([1]; 100 mM oxalic acid): not inhibited; Specific activity, Background [1]: 3.4 ± 0.1 U g-1; peroxidase activity of LPMO at higher concentrations [5]: nondetectable level; IC50 [6]: ~1000 µM; remaining activity at 100000 µM [6]: 0.6 ± 0.1%; Specific activity, NcLPMO9C - background [4]: 0.1 ± 0.1 U g-1; Specific activity, NcLPMO9C [4]: 3.5 ± 0.1 U g-1
10 | O=P(O)(O)O [Phosphoric acid] | 0.107 ± 0.02 Light Intensity at 620 nm min^−1 | 14.8 | 6.9 | 4.6 | 3.3 | 
11 | O=CC(=O)O [Glyoxylic acid] |  |  |  |  |  | Residual activity to 100 mM acetate buffer, Hydro-Coerulignone [5]: 1.1 ± 0.3%
12 | N[C@@H](Cc1c[nH]cn1)C(=O)O [Histidine] |  |  |  |  |  | peroxidase activity of LPMO at higher concentrations [5]: nondetectable level; IC50 [6]: ~1000 µM; remaining activity at 100000 µM [6]: 0.4 ± 0.2%

— article PMC9220355, “Inhibition of the Peroxygenase Lytic Polysaccharide Monooxygenase by Carboxylic Acids and Amino Acids” (Antioxidants, 2022)
